Source: patent US11028068B2, “Somatostatin modulators and uses thereof” (Crinetics Pharmaceuticals, Inc., priority 2017, dated 2021)

Target: T1, human somatostatin receptor subtype 2 (Homo sapiens, UniProt P30874)
T1 construct: expressed in transfected cells; host or cells: CHO (Chinese hamster ovary) cells, cultured under G-418 selection
Experiment: cAMP assay (inhibition of cAMP activities via sst2 receptor)
Type: cell-based
Settings: CHO cells expressing the human somatostatin receptor subtype 2, forskolin
Description: General overview: All five SSTR subtypes are Gi coupled G-protein coupled receptors (GPCRs) that lead to decreases in intracellular cyclic AMP (cAMP) when activated by an agonist. Therefore, measurement of intracellular cAMP levels can be used to assess whether compounds of the invention are agonists of SSTR subtypes (John Kelly, Troy Stevens, W. Joseph Thompson, and Roland Seifert, Current Protocols in Pharmacology, 2005,2.2.1-2.2). One example of an intracellular cAMP assay is described below.
One day prior to the assay, 40,000 Chinese hamster ovary (CHO) cells expressing the human somatostatin receptor subtype 2 are plated in each well of a 96-well tissue culture plate in DM-MEM growth media (Gibco) with the following additives: 10% fetal bovine serum (Gibco), 100 U/mL penicillin (Gibco), 100 ug/mL streptomycin (Gibco), 10 mM HEPES (Gibco), 1.2 mM sodium hydroxide, 0.5 mg/mL G-418 (Gibco)). The cells are cultured overnight at 37° C., 5% CO2 and 95% humidity. On the day of the assay, the media is aspirated and the cells are washed with 1X Dulbecco's phosphate buffered saline (Gibco). Next, 5 μL of assay buffer (1× Earle's Balanced Salt Solution (Gibco), 5 mM MgCl2, 10 mM HEPES, 0.1% bovine serum albumin, 0.2 mM 3-Isobutyl-1-methylxanthine (IBMX, Biomol Research Labs)) and forskolin is added. Various dilutions of the compounds of the invention are prepared in assay buffer and 5 μL of the dilutions are added to the cultured cells and incubated for 15 minutes at 37° C. (the final concentration of the compounds of the invention are typically 0-10,000 nM). 10 μL of lysis buffer (HRTF cAMP kit, Cisbio) containing cAMP detection and visualization antibodies are added and the assay is allowed incubate for 1-24 hours at room temperature. The intracellular cAMP concentrations are then measured using a commercially available detection kit (for example, the cAMP HTRF kit, Cisbio). The measured intracellular cAMP concentrations are plotted vs. the concentration of the compounds of the invention and the EC50 of the compounds are calculated using standard methods.

T1 sequence (P30874 whole entry): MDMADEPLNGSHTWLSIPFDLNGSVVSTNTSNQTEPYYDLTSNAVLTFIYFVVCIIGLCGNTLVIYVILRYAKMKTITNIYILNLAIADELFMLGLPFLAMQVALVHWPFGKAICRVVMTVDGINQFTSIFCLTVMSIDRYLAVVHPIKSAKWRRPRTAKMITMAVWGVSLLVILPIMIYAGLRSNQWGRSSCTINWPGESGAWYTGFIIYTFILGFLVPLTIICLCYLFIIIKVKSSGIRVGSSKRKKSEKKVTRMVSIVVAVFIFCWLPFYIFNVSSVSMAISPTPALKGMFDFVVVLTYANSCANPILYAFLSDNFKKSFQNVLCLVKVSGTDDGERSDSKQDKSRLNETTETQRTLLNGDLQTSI

Row | SMILES | EC50 [nM]
1 | CN(C[C@@H]1CCCN1)C(=O)c1c(N2CCC(CO)C2)cnc2ccc(-c3cccc(O)c3)nc12 (stereo partly drawn) [Compound 3-17, 3-[3-(hydroxymethyl)pyrrolidin-1-yl]-6-(3-hydroxyphenyl)-N-methyl-N-[(2S)-pyrrolidin-2-ylmethyl]-1,5-naphthyridine-4-carboxamide] | 100 to 1000
2 | CC#Cc1cnc2ccc(-c3cccc(O)c3)nc2c1C(=O)N(C)C[C@@H]1CCCN1 [Compound 3-18, 6-(3-hydroxyphenyl)-N-methyl-3-(prop-1-yn-1-yl)-N-((2S) -pyrrolidin-2-ylmethyl)-1,5-naphthyridine-4-carboxamide] | 100 to 1000
3 | CN(C[C@@H]1CCCN1)C(=O)c1c(N2CCO[C@H](c3ccccc3)C2)cnc2ccc(-c3cc(F)cc(C#N)c3)nc12 [Compound 3-42, 6-(3-cyano-5-fluorophenyl)-N-methyl-3-[(2R)-2-phenylmorpholin-4-yl]-N-[(2S) -pyrrolidin-2-ylmethyl]-1,5-naphthyridine-4-carboxamide] | 100 to 1000
4 | CN(C[C@@H]1CCCN1)C(=O)c1c(N2CCO[C@@H](c3ccccc3)C2)cnc2ccc(-c3cc(F)cc(C#N)c3)nc12 [Compound 3-47, 6-(3-cyano-5-fluorophenyl)-N-methyl-3-[(2S)-2-phenylmorpholin-4-yl]-N-[(2S) -pyrrolidin-2-ylmethyl]-1,5-naphthyridine-4-carboxamide] | 100 to 1000
5 | Cc1cc(F)cc(-c2cnc3ccc(-c4cccnc4)cc3c2C(=O)N(C)C[C@@H]2CCCN2)c1 [Compound 3-48, 3-(3-fluoro-5-methylphenyl)-N-methyl-6-(pyridin-3-yl)-N-[(2S)-pyrrolidin-2-ylmethyl]quinoline-4-carboxamide] | < 100
6 | CN(C[C@@H]1CCCN1)C(=O)c1c(N2CC(C)(C)OC(C)(C)C2)cnc2ccc(-c3cc(F)cc(C#N)c3)nc12 [Compound 3-49, 6-(3-cyano-5-fluorophenyl)-N-methyl-N-[(2S)-pyrrolidin-2-ylmethyl]-3-(2,2,6,6-tetramethylmorpholin-4-yl)-1,5-naphthyridine-4-carboxamide] | 100 to 1000

Second part, the compound after the results:

Row | EC50 [nM] | SMILES
7 | 100 to 1000 | CN(C[C@@H]1CCCN1)C(=O)c1c(N2CCc3cc(C(F)(F)F)ccc32)cnc2ccc(-c3cc(F)cc(C#N)c3)nc12 [Compound 3-54, 6-(3-cyano-5-fluorophenyl)-N-methyl-N-[(2S)-pyrrolidin-2-ylmethyl]-3-[5-(trifluoromethyl)-2,3-dihydro-1H-indol-1-yl]-1,5-naphthyridine-4-carboxamide]
8 | 100 to 1000 | CN(C[C@@H]1CCCN1)C(=O)c1c(N2Cc3ccc(C(F)(F)F)cc3C2)cnc2ccc(-c3cc(F)cc(C#N)c3)nc12 [Compound 3-55, 6-(3-cyano-5-fluorophenyl)-N-methyl-N-[(2S)-pyrrolidin-2-ylmethyl]-3-[5-(trifluoromethyl)-2,3-dihydro-1H-isoindol-2-yl]-1,5-naphthyridine-4-carboxamide]
9 | 100 to 1000 | CN(C[C@@H]1CCCN1)C(=O)c1c(N2CC3CC3C2)cnc2ccc(-c3cc(F)cc(C#N)c3)nc12 (stereo partly drawn) [Compound 3-69, 3-{3-azabicyclo[3.1.0]hexan-3-yl}-6-(3-cyano-5-fluorophenyl)-N-methyl-N-[(2S) -pyrrolidin-2-ylmethyl]-1,5-naphthyridine-4-carboxamide]
10 | 100 to 1000 | CN(C[C@@H]1CCCN1)C(=O)c1c(N2CC3CCC(C2)O3)cnc2ccc(-c3cc(F)cc(C#N)c3)nc12 [Compound 3-70, 6-(3-cyano-5-fluorophenyl)-N-methyl-3-{8-oxa-3-azabicyclo[3.2.1]octan-3-yl}-N-[(2S) -pyrrolidin-2-ylmethyl]-1,5-naphthyridine-4-carboxamide]
11 | 100 to 1000 | CN(C[C@@H]1CCCN1)C(=O)c1c(N2CCC(F)(F)C2)cnc2ccc(-c3cc(F)cc(C#N)c3)nc12 [Compound 3-76, 6-(3-cyano-5-fluorophenyl)-3-(3,3-difluoropyrrolidin-1-yl)-N-methyl-N-[(2S)-pyrrolidin-2-ylmethyl]-1,5-naphthyridine-4-carboxamide]
